In US11078193B2 (priority 2014, dated 2021):

Tests used:
[1] = system: HBV; test: anti-HBV activity, HepG2.2.15 stable transfected cell line, HBV DNA from secreted virions by realtime PCR; assay type: cell-based; details: Hepatitis B virus, 144 h, HepG2.2.15 cells, 6 days of treatment
[2] = system: HBV; test: anti HBV activity, HepG2.117 inducibly HBV producing cell line (Tet-off), intracellular HBV DNA by realtime PCR; assay type: cell-based; details: Hepatitis B virus, 72 h, HepG2.117 cells, 3 days of treatment
[3] = Cytotoxicity, HepG2 cells, Resazurin assay; assay type: cell-based; details: human
[4] = ATP based toxicity assay (ATPlite), HepG2 cell line; details: human, HepG2 cells, ATPlite (ATP levels)
Experimental: Alternatively, cytotoxicity was determined via an ATP-assay: The ATPlite kit from Perkin Elmer was used to assess compound cytotoxicity on the HepG2 cell line by determination of the ATP (adenosine triphosphate) levels. ATP is a marker for functional integrity and cell viability, because it is present in all metabolically active cells and any form of cell injury will result in a rapid decline in cellular ATP concentration. After compound incubation, 1 volume of ATPlite solution was added to the cells and the luminescence signal was measured.

Row | SMILES | EC50 [1] [nM] | EC50 [2] [nM] | CC50 at 4 days [3] [nM] | CC50 at 4 days [4] [nM]
1 | C[C@@H](NS(=O)(=O)c1cn(C)c(C(=O)Nc2ccnc(C#N)c2)c1F)C(F)(F)F [Compound 18, N-(2-Cyanopyridin-4-yl)-3-fluoro-1-methyl-4-{[(1R)-2,2,2-trifluoro-1-methylethyl]sulfamoyl}-1H-pyrrole-2-carboxamide] | 30 | 30 | > 25000 | > 25000
2 | C[C@@H](NS(=O)(=O)c1cn(C)c(C(=O)Nc2ccnc(Cl)c2)c1F)C(F)(F)F [Compound 20, N-(2-chloro-4-pyridyl)-3-fluoro-1-methyl-[[(1R)-2,2,2-trifluoro-1-methyl-ethyl]sulfamoyl]pyrrole-2-carboxamide] | 30 | 20 | > 25000 | > 25000
3 | C[C@@H](NS(=O)(=O)c1cn(C)c(C(=O)Nc2ccnc(Br)c2)c1F)C(F)(F)F [Compound 23, N-(2-bromo-4-pyridyl)-3-fluoro-1-methyl-4-[[(1R)-2,2,2-trifluoro-1-methyl-ethyl]sulfamoyl]pyrrole-2-carboxamide] | 10 | 10 | > 25000 | > 25000
4 | C[C@@H](NS(=O)(=O)c1cn(C)c(C(=O)Nc2ccnc(F)c2)c1F)C(F)(F)F [Compound 24, 3-fluoro-N-(2-fluoro-4-pyridyl)-1-methyl-4-[[(1R)-2,2,2-trifluoro-1-methyl-ethyl]sulfamoyl]pyrrole-2-carboxamide] | 40 | 40 | > 25000 | > 25000
5 | Cc1c(S(=O)(=O)N[C@H](C)C(F)(F)F)c(Cl)c(C(=O)Nc2ccnc(C#N)c2)n1C [Compound 32, 3-chloro-N-(2-cyano-4-pyridyl)-1,5-dimethyl-4-[[(1R)-2,2,2-trifluoro-1-methyl-ethyl]sulfamoyl]pyrrole-2-carboxamide] | 20 | 20 | > 25000 | > 25000
6 | C[C@@H](NS(=O)(=O)c1cn(C)c(C(=O)Nc2ccnc(Br)c2)c1Cl)C(F)(F)F [Compound 106, N-(2-bromo-4-pyridyl)-3-chloro-1-methyl-4-[[(1R)-2,2,2-trifluoro-1-methyl-ethyl]sulfamoyl]pyrrole-2-carboxamide] |  | 20 | > 25000 | > 25000
7 | Cn1cc(S(=O)(=O)NC2(C(F)(F)F)CCC2)c(Cl)c1C(=O)Nc1ccnc(C(F)F)c1 [Compound 108, 3-chloro-N-[2-(difluoromethyl)-4-pyridyl]-1-methyl-4-[[1-(trifluoromethyl)cyclobutyl]sulfamoyl]pyrrole-2-carboxamide] |  | 20 | > 25000 | > 25000
8 | Cn1cc(S(=O)(=O)NC2(C)CC(F)(F)C2)c(Cl)c1C(=O)Nc1ccnc(Br)c1 [Compound 113, N-(2-bromo-4-pyridyl)-3-chloro-4-[(3,3-difluoro-1-methyl-cyclobutyl)sulfamoyl]-1-methyl-pyrrole-2-carboxamide] |  | 10 | > 25000 | 23700
9 | Cn1cc(S(=O)(=O)NC2(C)CC(F)(F)C2)c(Cl)c1C(=O)Nc1cc(F)nc(F)c1 [Compound 115, 3-chloro-4-[(3,3-difluoro-1-methyl-cyclobutyl)sulfamoyl]-N-(2,6-difluoro-4-pyridyl)-1-methyl-pyrrole-2-carboxamide] |  | 6 | > 25000 | > 25000
10 | Cn1cc(S(=O)(=O)NC2(C)CC(F)(F)C2)c(F)c1C(=O)Nc1cc(F)nc(F)c1 [Compound 132, 4-[(3,3-difluoro-1-methyl-cyclobutyl)sulfamoyl]-N-(2,6-difluoro-4-pyridyl)-3-fluoro-1-methyl-pyrrole-2-carboxamide] |  | 10 | > 25000 | > 25000
11 | Cc1cc(NC(=O)c2c(F)c(S(=O)(=O)NC3(C)CC(F)(F)C3)cn2C)cc(F)n1 [Compound 134, 4-[(3,3-difluoro-1-methyl-cyclobutyl)sulfamoyl]-3-fluoro-N-(2-fluoro-6-methyl-4-pyridyl)-1-methyl-pyrrole-2-carboxamide] |  | 10 | > 25000 | > 25000
12 | C[C@@H](NS(=O)(=O)c1cn(C)c(C(=O)Nc2ccnc(Br)c2F)c1Cl)C(F)(F)F [Compound 139, N-(2-bromo-3-fluoro-4-pyridyl)-3-chloro-1-methyl-4-[[(1R)-2,2,2-trifluoro-1-methyl-ethyl]sulfamoyl]pyrrole-2-carboxamide] |  | 20 | > 25000 | > 25000
13 | Cc1cc(NC(=O)c2c(Cl)c(S(=O)(=O)N[C@H](C)C(C)(F)F)cn2C)cc(F)n1 [Compound 146, 3-chloro-4-[[(1R)-2,2-difluoro-1-methyl-propyl]sulfamoyl]-N-(2-fluoro-6-methyl-4-pyridyl)-1-methyl-pyrrole-2-carboxamide] |  | 30 | > 25000 | > 25000
14 | Cc1cc(NC(=O)c2c(F)c(S(=O)(=O)N[C@H](C)C(F)(F)F)cn2C)cc(Br)n1 [Compound 154, N-(2-bromo-6-methyl-4-pyridyl)-3-fluoro-1-methyl-4-[[(1R)-2,2,2-trifluoro-1-methyl-ethyl]sulfamoyl]pyrrole-2-carboxamide] |  | 80 | > 25000 | > 25000
15 | Cc1cc(NC(=O)c2c(F)c(S(=O)(=O)N[C@H](C)C(C)(F)F)cn2C)cc(Cl)n1 [Compound 158, N-(2-chloro-6-methyl-4-pyridyl)-4-[[(1R)-2,2-difluoro-1-methyl-propyl]sulfamoyl]-3-fluoro-1-methyl-pyrrole-2-carboxamide] |  | 50 | > 25000 | > 25000
16 | Cc1cc(NC(=O)c2c(F)c(S(=O)(=O)N[C@H](C)C(C)(F)F)cn2C)cc(F)n1 [Compound 160, 4-[[(1R)-2,2-difluoro-1-methyl-propyl]sulfamoyl]-3-fluoro-N-(2-fluoro-6-methyl-4-pyridyl)-1-methyl-pyrrole-2-carboxamide] |  | 10 | > 25000 | > 25000
17 | Cc1cc(NC(=O)c2c(F)c(S(=O)(=O)NC3(C(F)(F)F)CCC3)cn2C)cc(F)n1 [Compound 172, 3-fluoro-N-(2-fluoro-6-methyl-4-pyridyl)-1-methyl-4-[[1-(trifluoromethyl)cyclobutyl]sulfamoyl]pyrrole-2-carboxamide] |  | 10 | > 25000 | > 25000
18 | Cn1cc(S(=O)(=O)NC2(C(F)(F)F)CC2)c(F)c1C(=O)Nc1ccnc(Cl)c1 [Compound 175, N-(2-chloro-4-pyridyl)-3-fluoro-1-methyl-4-[[1-(trifluoromethyl)cyclopropyl]sulfamoyl]pyrrole-2-carboxamide] | 120 | 20 |  | > 25000
19 | C[C@@H](NS(=O)(=O)c1cn(C)c(C(=O)Nc2ccnc(Br)c2F)c1F)C(C)(F)F [Compound 176, N-(2-bromo-3-fluoro-4-pyridyl)-4-[[(1R)-2,2-difluoro-1-methyl-propyl]sulfamoyl]-3-fluoro-1-methyl-pyrrole-2-carboxamide] | < 100 | 3 |  | > 25000
20 | Cc1cc(NC(=O)c2c(Cl)c(S(=O)(=O)N[C@H](C)C(F)(F)F)cn2C)cc(C(F)F)n1 [Compound 177, 3-chloro-N-[2-(difluoromethyl)-6-methyl-4-pyridyl]-1-methyl-[[(1R)-2,2,2-trifluoro-1-methyl-ethyl]sulfamoyl]pyrrole-2-carboxamide] | 260 | 100 |  | > 25000
21 | Cc1cc(NC(=O)c2c(F)c(S(=O)(=O)N[C@H](C)C(C)(F)F)cn2C)cc(C(F)F)n1 [Compound 178, N-[2-(difluoromethyl)-6-methyl-4-pyridyl]-4-[[(1R)-2,2-difluoro-1-methyl-propyl]sulfamoyl]-3-fluoro-1-methyl-pyrrole-2-carboxamide] | 240 | 50 |  | > 25000
22 | Cc1cc(NC(=O)c2c(F)c(S(=O)(=O)N[C@H](C)C(F)(F)F)cn2C)cc(C(F)F)n1 [Compound 179, N-[2-(difluoromethyl)-6-methyl-4-pyridyl]-3-fluoro-1-methyl-[[(1R)-2,2,2-trifluoro-1-methyl-ethyl]sulfamoyl]pyrrole-2-carboxamide] | 210 | 70 |  | > 25000
23 | C[C@@H](NS(=O)(=O)c1cn(C)c(C(=O)Nc2cc(F)nc(F)c2Cl)c1Cl)C(F)(F)F [Compound 185, 3-chloro-N-(3-chloro-2,6-difluoro-4-pyridyl)-1-methyl-4-[[(1R)-2,2,2-trifluoro-1-methyl-ethyl]sulfamoyl]pyrrole-2-carboxamide] |  | 740 | > 25000 | > 25000
24 | Cc1c(S(=O)(=O)N[C@H](C)C(F)(F)F)c(F)c(C(=O)Nc2cc(F)nc(F)c2)n1C [Compound 199, N-(2,6-difluoro-4-pyridyl)-3-fluoro-1,5-dimethyl-4-[[(1R)-2,2,2-trifluoro-1-methyl-ethyl]sulfamoyl]pyrrole-2-carboxamide] | < 100 | 6 |  | > 25000
25 | Cc1c(S(=O)(=O)N[C@H](C)C(F)(F)F)c(F)c(C(=O)Nc2ccnc(Cl)c2)n1C [Compound 200, N-(2-chloro-4-pyridyl)-3-fluoro-1,5-dimethyl-4-[[(1R)-2,2,2-trifluoro-1-methyl-ethyl]sulfamoyl]pyrrole-2-carboxamide] | 110 | 20 |  | > 25000
